{
  "source": "patent US8889902B2",
  "about": "“Acetylsalicylic acid salts” (priority 2009, dated 2014)",
  "key": {"[1]": {"test_system": "response to thermal irritation (hot plate)", "assay": "Mouse hot plate test", "assay_type": "in vivo, mice", "conditions": "100 mg/kg p.o."}, "[2]": {"test_system": "WBC, CRP, CIC in adjuvant arthritis", "assay": "Adjuvant arthritis: WBC, CRP and CIC in blood", "assay_type": "in vivo, Wistar rats", "conditions": "100 mg/kg daily p.o.", "method": "Our experiments were scheduled to test the influence of MASA on the progress of adjuvant arthritis in comparison with MD and ASA. Experiments were conducted on Wistar rats with starting body mass of 153-185 g. Rats were kept in climatized rooms at 22±1° C., relative humidity 60±5% and 12/12-hour light/darkness cycle. Each standard cage housed 7 rats with unlimited access to drinking water and granulated standard feed. All experiments were carried out in accordance with the European Community Council's Directive of 24 Nov. 1986 (86/609/EEC) relative to experimental animal care. All efforts were made to minimize animal suffering and to reduce the number of animals used.\nA modified standard procedure for inducting and evaluating the progress of chronic adjuvant arthritis was used (Bellavite P, Ortolani R, Conforti A, Immunology and Homeopathy. 3. Experimental Studies on Animal Models, Advance Access Publication 2.05, 2006, 171-186). Rats were injected into the hind foot pad 0.1 ml and intraperitonealy with 0.05 ml of complete Freund's adjuvant solution.\nHematological indices were determined by standard methods on hematological analyzer ? PENTRA 120 ? , CRP was determined on ? INTEGRA 400+ ? . Levels of CIC in blood serum were determined spectrometrically, using […]."}, "[3]": {"test_system": "blood flow in the right ear artery", "assay": "Cutaneous vasodilatation caused by nicotinic acid, ear artery blood flow", "assay_type": "in vivo, Wistar rats", "conditions": "15 mg/kg s.c.; maximal change to baseline", "method": "Model. […] Blood pressure was measured in left carotid artery, ECG recorded by standard II lead. […] Blood flow, ECG and arterial pressure were registered by AD Instruments PowerLab systems and stored in computer for further processing. […] The average blood flow data for each animal were calculated taking into account the average blood pressure and compared with initial and control. […] Statistics."}, "[4]": {"test_system": "serum lipid levels (C, HDL, LDL, TG)", "assay": "Chronic hyperlipidemia model (Triton WR1339, 3 weeks)", "assay_type": "in vivo, Wistar rats", "conditions": "NA 50 mg/kg/d p.o.; TR 250 mg/kg 3x/week", "method": "Male Wistar rats were used. Animals were held in climatized rooms 22±1° C. with relative humidity 60±5%, and 12/12-hour light/dark cycle with free access to water and feed. Initial weight of animals was 220-240 g. Experimental chronical (subchronical) hyperlipidemia/hypercholesterolemia was induced by TR using the method described by Levine and Saltzman (Levine S, Saltzman A, J Pharmacol Toxicol Meth 2007; 55:224-226). Animals received 250 mg/kg of TR solution via tail vein three times a week for 3 weeks. Solutions of test substances or water for Control and TR group was introduced p.o. once a day one hour before injection of TR solution or taking a blood sample according to the following scheme:\nBlood for biochemical analyses was obtained after 1, 2 and 3 weeks (on the next day after the TR injection) by cardiac punction under ether narcosis. Serum was separated by centrifugation and analyzed for total C, HDL, LDL and TG levels by commercial kits. Statistics."}},
  "note": "Marks after values point to notes of the source that are not given here.",
  "data": [
    {"smiles": "C[N+](C)(C)NCCC(=O)[O-].O.O", "note": "[MD, 3-(Trimethylammonioamino)propanoate dihydrate]", "values": [
      {"measurement": "Latent period at 30 min after introduction of test substance", "setting": "[1]", "result": "9.5 ± 0.68***^&& s"},
      {"measurement": "Latent period at 60 min after introduction of test substance", "setting": "[1]", "result": "8.3 ± 0.53", "unit": "s"},
      {"measurement": "CIC units, Day 14", "setting": "[2]", "result": "11.8 ± 2.22", "unit": "units"},
      {"measurement": "CIC units, Day 28", "setting": "[2]", "result": "8.6 ± 0.93", "unit": "units"},
      {"measurement": "CRP, Day 14", "setting": "[2]", "result": "0.26 ± 0.02", "unit": "mg/L"},
      {"measurement": "CRP, Day 28", "setting": "[2]", "result": "0.17 ± 0.02", "unit": "mg/L"},
      {"measurement": "Leucocytes (WBC), Day 14", "setting": "[2]", "result": "14.42 ± 1.41^# 10^3/mm^3"},
      {"measurement": "Leucocytes (WBC), Day 28", "setting": "[2]", "result": "15.55 ± 1.26^# 10^3/mm^3"}
    ]},
    {"smiles": "O=C(O)c1cccnc1", "note": "[NA, nicotinic acid]", "values": [
      {"measurement": "Changes in blood flow, %", "setting": "[3]", "result": "55.75 ± 11.5", "unit": "%"},
      {"measurement": "HDL after 1 week (HDL1)", "setting": "[4]", "result": "111.3 ± 9.1", "unit": "mg/dL"},
      {"measurement": "HDL after 2 weeks (HDL2)", "setting": "[4]", "result": "144.7 ± 13.5", "unit": "mg/dL"},
      {"measurement": "HDL after 3 weeks (HDL3)", "setting": "[4]", "result": "127.3 ± 10.9", "unit": "mg/dL"},
      {"measurement": "LDL after 1 week (LDL1)", "setting": "[4]", "result": "216.3 ± 14.0", "unit": "mg/dL"},
      {"measurement": "LDL after 2 weeks (LDL2)", "setting": "[4]", "result": "250.3 ± 20.6", "unit": "mg/dL"},
      {"measurement": "LDL after 3 weeks (LDL3)", "setting": "[4]", "result": "265.1 ± 18.4", "unit": "mg/dL"},
      {"measurement": "TG after 1 week (TG1)", "setting": "[4]", "result": "734 ± 81.6", "unit": "mg/dL"},
      {"measurement": "TG after 2 weeks (TG2)", "setting": "[4]", "result": "860 ± 73.8", "unit": "mg/dL"},
      {"measurement": "TG after 3 weeks (TG3)", "setting": "[4]", "result": "828 ± 44.7", "unit": "mg/dL"},
      {"measurement": "Total C after 1 week (C1)", "setting": "[4]", "result": "345 ± 15.7", "unit": "mg/dL"},
      {"measurement": "Total C after 2 weeks (C2)", "setting": "[4]", "result": "401.1 ± 25.1", "unit": "mg/dL"},
      {"measurement": "Total C after 3 weeks (C3)", "setting": "[4]", "result": "405.5 ± 25.9", "unit": "mg/dL"}
    ]}
  ]
}
